# Data: US12252488B2 (Nimbus Saturn, Inc., priority 2021, dated 2025)
# Molecular target: T1, HPK1 (Homo sapiens, UniProt Q92918)
# T1 construct: purchased Invitrogen
# Assay: HPK1 biochemical enzyme assay (microfluidic mobility shift assay)
# Details: 1000 uM (1 mM) ATP; Caliper mobility shift; 1.5 nM HPK1; 30 min preincubation; read-out: HPK1 1000UMATP caliper IC50
# Summary of the method: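 Microfluidic mobility-shift readout with 1.5 nM HPK1 in pH 7.4 buffer; compounds (ten-point curves, top 3 μM final) preincubated 30 min with enzyme/substrate. Reaction started with 1 mM ATP and 1 μM substrate plus 5 mM MgCl2, run 60 min at RT. IC50 values binned into activity classes.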
# T1 sequence (Q92918 whole entry): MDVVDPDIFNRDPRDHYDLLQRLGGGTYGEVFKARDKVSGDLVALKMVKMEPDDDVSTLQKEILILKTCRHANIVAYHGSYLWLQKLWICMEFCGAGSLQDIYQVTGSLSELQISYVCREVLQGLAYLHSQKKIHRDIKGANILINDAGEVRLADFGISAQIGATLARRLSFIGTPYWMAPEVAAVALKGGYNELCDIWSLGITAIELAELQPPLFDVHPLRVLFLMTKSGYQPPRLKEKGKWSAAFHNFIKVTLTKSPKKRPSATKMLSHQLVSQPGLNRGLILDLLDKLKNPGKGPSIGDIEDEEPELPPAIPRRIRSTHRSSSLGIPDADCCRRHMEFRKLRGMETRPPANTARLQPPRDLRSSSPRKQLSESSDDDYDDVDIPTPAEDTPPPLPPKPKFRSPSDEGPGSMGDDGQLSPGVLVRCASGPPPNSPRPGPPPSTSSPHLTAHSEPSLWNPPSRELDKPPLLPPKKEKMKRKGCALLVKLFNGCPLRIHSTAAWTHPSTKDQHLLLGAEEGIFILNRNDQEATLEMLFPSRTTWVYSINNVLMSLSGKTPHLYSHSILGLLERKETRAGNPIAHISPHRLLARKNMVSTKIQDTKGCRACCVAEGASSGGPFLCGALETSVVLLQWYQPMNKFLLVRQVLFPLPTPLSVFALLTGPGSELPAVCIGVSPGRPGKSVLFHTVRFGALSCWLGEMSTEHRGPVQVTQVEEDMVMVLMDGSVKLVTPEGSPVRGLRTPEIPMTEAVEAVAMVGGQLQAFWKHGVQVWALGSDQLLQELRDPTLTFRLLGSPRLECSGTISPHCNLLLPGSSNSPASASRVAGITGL
row,SMILES,IC50 [nM]
1,"O=C(c1ccc(-c2cc(Nc3ccc(N4CCC(O)CC4)cn3)c3c(=O)[nH]ccc3n2)c(F)c1)N1CCCC(O)C1 (stereo not shown) [I-145, 2-[2-fluoro-4-(3-hydroxy-piperidine-1-carbonyl)phenyl]-4-[[5-(4-hydroxy-1-piperidyl)-2-pyridyl]amino]-6H-1,6-naphthyridin-5-one]",> 1000
2,"Cc1c[nH]c(=O)c2c(Nc3ccc(N4CCC(O)CC4)cn3)cc(-c3ccc(C(=O)N4CCCCC4)cc3F)nc12 [I-146, 2-[2-fluoro-4-(piperidine-1-carbonyl)phenyl]-4-[[5-(4-hydroxy-1-piperidyl)-2-pyridyl]amino]-8-methyl-6H-1,6-naphthyridin-5-one]",100 to 1000
3,"O=C(c1ccc(-c2cc(Nc3ccc(N4CCC(O)CC4)cn3)c3c(=O)[nH]ccc3n2)c(F)c1)N1CCCC1CO (stereo not shown) [I-147, 2-[2-fluoro-4-[2-(hydroxy-methyl)pyrrolidine-1-carbonyl]phenyl]-4-[[5-(4-hydroxy-1-piperidyl)-2-pyridyl]amino]-6H-1,6-naphthyridin-5-one]",100 to 1000
4,"O=C(c1ccc(-c2cc(Nc3ccc(N4CCC5(CCOCC5)CC4)cn3)c3c(=O)[nH]ccc3n2)c(F)c1)N1CCCCC1 [I-148, 2-[2-fluoro-4-(piperidine-1-carbonyl)phenyl]-4-[[5-(3-oxa-9-azaspiro [5.5]undecan-9-yl)-2-pyridyl]amino]-6H-naphthyridin-5-one]",> 1000
5,"CC(C)(C#N)c1ccc(-c2cc(Nc3ccc(N4CCC(O)CC4)cn3)c3c(=O)[nH]ccc3n2)c(F)c1 [I-149, 2-[3-fluoro-4-[4-[[5-(4-hydroxy-1-piperidyl)-2-pyridyl]amino]-5-oxo-6H-1,6-naphthyridin-2-yl]phenyl]-2-methyl-propane-nitrile]",100 to 1000
6,"O=c1[nH]ccc2nc(-c3cc(CN4CCCCC4)ccc3F)cc(Nc3ccc(N4CCC(O)CC4)cn3)c12 [I-150, 2-[2-fluoro-5-(1-piperidyl-methyl)phenyl]-4-[[5-(4-hydroxy-1-piperidyl)-2-pyridyl]amino]-6H-1,6-naphthyridin-5-one]",100 to 1000
7,"O=C(Nc1ccc(-c2cc(Nc3ccc(N4CCC(O)CC4)cn3)c3c(=O)[nH]ccc3n2)c(F)c1)C1CCC1 [I-152, N-[3-fluoro-4-[4-[[5-(4-hydroxy-1-piperidyl)-2-pyridyl]amino]-5-oxo-6H-1,6-naphthyridin-2-yl]phenyl] cyclobutane-carboxamide]",100 to 1000
8,CC1(C(=O)Nc2ccc(-c3cc(Nc4ccc(N5CCC(O)CC5)cn4)c4c(=O)[nH]ccc4n3)c(F)c2)CC1 [I-153],100 to 1000
9,"O=C(Nc1ccc(-c2cc(Nc3ccc(N4CCC(O)CC4)cn3)c3c(=O)[nH]ccc3n2)c(F)c1)C1CCCC1 [I-154, N-[3-fluoro-4-[4-[[5-(4-hydroxy-1-piperidyl)-2-pyridyl]amino]-5-oxo-6H-1,6-naphthyridin-2-yl]phenyl] cyclo-pentane carboxamide]",100 to 1000
10,"O=C(c1ccc(-c2cc(Nc3ccc(N4CCOCC4)cn3)c3c(=O)[nH]ccc3n2)c(F)c1)N1CCCCC1 [I-155, 2-[2-fluoro-4-(piperidine-1-carbonyl)phenyl]-4-[(5-morpholino-2-pyridyl)amino]-6H-1,6-naphthyridin-5-one]",> 1000
11,COc1cc(-c2cc(Nc3ccc(N4CCNCC4)cn3)c3c(=O)[nH]ccc3n2)c(F)cc1C(=O)N1CCCCC1 [I-157],> 1000
12,"Cc1c[nH]c(=O)c2c(Nc3ccc(N4CCC(O)CC4)cn3)cc(-c3ccc(NC(=O)C4CCCCC4)cc3F)nc12 [I-158, N-[3-fluoro-4-[4-[[5-(4-hydroxy-1-piperidyl)-2-pyridyl]amino]-8-methyl-5-oxo-6H-1,6-naphthyridin-2-yl]phenyl] cyclohexane carboxamide]",≤ 100
13,"O=C(Nc1ccc(-c2cc(Nc3ccc(N4CCOCC4)cn3)c3c(=O)[nH]ccc3n2)c(F)c1)C1CCCCC1 [I-159, N-[3-fluoro-4-[4-[(5-morpholino-2-pyridyl)amino]-5-oxo-6H-1,6-naphthyridin-2-yl]phenyl] cyclohexane carboxamide]",≤ 100
14,"O=C(Nc1ccc(-c2cc(Nc3ccc(C(=O)N4CCCC4)cc3)c3c(=O)[nH]ccc3n2)c(F)c1)C1CCCCC1 [I-160, N-[3-fluoro-4-[5-oxo-4-[4-(pyrrolidine-1-carbonyl)anilino]-6H-1,6-naphthyridin-2-yl]phenyl] cyclohexane carboxamide]",≤ 100
15,"COc1cc(-c2cc(Nc3ccc(N4CCC(O)CC4)cn3)c3c(=O)[nH]cc(C)c3n2)c(F)cc1C(=O)N1CCCCC1 [I-163, 2-[2-fluoro-5-methoxy-4-(piperidine-1-carbonyl)phenyl]-4-[[5-(4-hydroxy-1-piperidyl)-2-pyridyl]amino]-8-methyl-6H-1,6-naphthyridin-5-one]",> 1000
16,"COc1cc(-c2cc(Nc3ccc(N4CCOCC4)cn3)c3c(=O)[nH]ccc3n2)c(F)cc1C(=O)N1CCCCC1 [I-164, 2-[2-fluoro-5-methoxy-4-(piperidine-1-carbonyl)phenyl]-4-[(5-morpholino-2-pyridyl)amino]-6H-1,6-naphthyridin-5-one]",≤ 100

# More lines, now with the values ahead:
row,IC50 [nM],SMILES
1,100 to 1000,"COc1cc(-c2cc(Nc3ccc(C(=O)N4CCCC4)cc3)c3c(=O)[nH]ccc3n2)c(F)cc1C(=O)N1CCCCC1 [I-165, 2-[2-fluoro-5-methoxy-4-(piperidine-1-carbonyl)phenyl]-4-[4-(pyrrolidine-1-carbonyl)amino]-6H-1,6-naphthyridin-5-one]"
2,≤ 100,"COc1c(C(=O)N2CCCCC2)ccc(-c2cc(Nc3ccc(N4CCC(O)CC4)cn3)c3c(=O)[nH]ccc3n2)c1F [I-166, 2-[2-fluoro-3-methoxy-4-(piperidine-1-carbonyl)phenyl]-4-[[5-(4-hydroxy-1-piperidyl)-2-pyridyl]amino]-6H-1,6-naphthyridin-5-one]"
3,≤ 100,"Cc1cc(F)c(-c2cc(Nc3ccc(N4CCC(O)CC4)cn3)c3c(=O)[nH]ccc3n2)cc1C(=O)N1CCCCC1 [I-167, 2-[2-fluoro-4-methyl-5-(piperidine-1-carbonyl)phenyl]-4-[[5-(4-hydroxy-1-piperidyl)-2-pyridyl]amino]-6H-1,6-naphthyridin-5-one]"
4,≤ 100,"Cc1n[nH]c2cc(F)c(-c3cc(Nc4ccc(N5CCNCC5)cn4)c4c(=O)[nH]ccc4n3)cc12 [I-168, 2-(6-fluoro-3-methyl-1H-indazol-5-yl)-4-[[5-piperazin-1-yl-2-pyridyl)amino]-6H-1,6-naphthyridin-5-one]"
5,100 to 1000,"COc1cc(-c2cc(Nc3ccc(N4CCC(F)(F)CC4)cn3)c3c(=O)[nH]ccc3n2)c(F)cc1C(=O)N1CCCCC1 [I-169, 4-[[5-(4,4-difluoro-1-piperidyl)-2-pyridyl]amino]-2-[2-fluoro-5-methoxy-4-(piperidine-1-carbonyl)phenyl]-6H-1,6-naphthyridin-5-one]"
6,100 to 1000,"COc1cc(-c2cc(Nc3ccc(N4C[C@H]5CC[C@@H](C4)O5)cn3)c3c(=O)[nH]ccc3n2)c(F)cc1C(=O)N1CCCCC1 [I-170, 2-[2-fluoro-5-methoxy-4-(piperidine-1-carbonyl)phenyl]-4-[[5-[(1R,5S)-8-oxa-3-azabicyclo [3.2.1]octan-3-yl]-2-pyridyl]amino]-6H-1,6-naphthyridin-5-one]"
7,100 to 1000,"O=c1[nH]ccc2nc(-c3cccc(CN4CCOCC4)c3F)cc(Nc3ccc(N4CCC(O)CC4)cn3)c12 [I-171, 2-[2-fluoro-3-(morpholino-methyl)phenyl]-4-[[5-(4-hydroxy-1-piperidyl)-2-pyridyl]amino]-6H-1,6-naphthyridin-5-one]"
8,> 1000,"O=C(Nc1ccc(-c2cc(Nc3ccc(N4CCC(F)(F)CC4)cn3)c3c(=O)[nH]ccc3n2)c(F)c1)C1CCCCC1 [I-172, N-[4-[4-[[5-(4,4-difluoro-1-piperidyl)-2-pyridyl]amino]-5-oxo-6H-1,6-naphthyridin-2-yl]-3-fluoro-phenyl] cyclohexane-carboxamide]"
9,100 to 1000,"O=C(Nc1ccc(-c2cc(Nc3ccc(N4C[C@H]5CC[C@@H](C4)O5)cn3)c3c(=O)[nH]ccc3n2)c(F)c1)C1CCCCC1 [I-173, N-[3-fluoro-4-[4-[[5-[(1R,5S)-8-oxa-3-azabicyclo [3.2.1]octan-3-yl]-2-pyridyl]amino]-5-oxo-6H-1,6-naphthyridin-2-yl]phenyl]-cyclohexane-carboxamide]"
10,> 1000,"COc1cc(-c2cc(Nc3ccc(N4CC(F)(F)C4)cn3)c3c(=O)[nH]ccc3n2)c(F)cc1C(=O)N1CCCCC1 [I-174, 4-[[5-(3,3-difluoro-azetidin-1-yl)-2-pyridyl]amino]-2-[2-fluoro-5-methoxy-4-(piperidine-1-carbonyl)phenyl]-6H-1,6-naphthyridin-5-one]"
11,100 to 1000,"COc1cc(-c2cc(Nc3ccc(N4CCNCC4)cn3)c3c(=O)[nH]ccc3n2)c(F)cc1C(=O)N1CCC1 [I-175, 2-[4-(azetidine-1-carbonyl)-2-fluoro-5-methoxy-phenyl]-4-[(5-piperazin-1-yl-2-pyridyl)amino]-6H-1,6-naphthyridin-5-one]"
12,≤ 100,"COc1cc(-c2cc(Nc3ccc(N4CCNCC4)cn3)c3c(=O)[nH]ccc3n2)c(F)cc1C(=O)N(C)C [I-176, 5-fluoro-2-methoxy-N,N-dimethyl-4-[5-oxo-4-[(5-piperazin-1-yl-2-pyridyl)amino]-6H-1,6-naphthyridin-2-yl] benzamide]"
13,≤ 100,"O=c1[nH]ccc2nc(-c3cc(CN4CCCC4)ccc3F)cc(Nc3ccc(N4CCC(O)CC4)cn3)c12 [I-177, 2-[2-fluoro-5-(pyrrolidin-1-ylmethyl)phenyl]-4-[[5-(4-hydroxy-1-piperidyl)-2-pyridyl]amino]-6H-1,6-naphthyridin-5-one]"
14,100 to 1000,"Cc1nc2cc(-c3cc(Nc4ccc(N5CCNCC5)cn4)c4c(=O)[nH]ccc4n3)c(F)cc2o1 [I-178, 2-(6-fluoro-2-methyl-1,3-benzoxazol-5-yl)-4-[(5-piperazin-1-yl-2-pyridyl)amino]-6H-1,6-naphthyridin-5-one]"
15,100 to 1000,"O=C(Nc1ccc(-c2cc(Nc3ccc(N4CCC(O)CC4)cn3)c3c(=O)[nH]ccc3n2)c(F)c1)C1CC2CCC1C2 (stereo not shown) [I-179, N-[3-fluoro-4-[4-[[5-(4-hydroxy-1-piperidyl)-2-pyridyl]amino]-5-oxo-6H-1,6-naphthyridin-2-yl]phenyl] norbornane-2-carboxamide]"
